Key:
Assay type in all cases: physicochemical
[1] = Water sorption/desorption on automatic water sorption analyzer DVS-1; details: 25° C.
Experimental: Anhydro form of ezetimibe was tested on the automatic water sorption analyzer DVS-1 (Surface Measurement Systems Ltd., London, GB) under the following conditions: • controlled room temperature (25° C.) • nitrogen flow 200 ml/min • two full cycles from 0% RH to 95% RH and back in eleven stages • minimal time per one stage (when dm/dt<0.002%) was 10 min • maximal time per one stage was 360 min.

[2] = Heating in Mettler HR73 Halogen Moisture Analyzer (LOD), then XRPD analysis
Excerpt: Hydrated form H of ezetimibe (from Example 30) was heated in a Mettler HR73 Halogen Moisture Analyzer. […] In all cases anhydro form of ezetimibe resulted according to XRPD analysis.
Pure S form of ezetimibe (tert.-butanol solvate; from Example 32) was heated in a Mettler HR73 Halogen Moisture Analyzer at different temperatures for the time indicated and analyzed by XRPD.

[3] = Drying in a vacuum dryer, XRPD analysis; details: ambient temperature, cca. 100 mbar
Experimental: Hydrated form H of ezetimibe was dried in a vacuum dryer at an ambient temperature and a pressure of cca. 100 mbar. After 1 h anhydrous form already predominated (A>H), after 2 h it became the sole form according to XRPD analysis.

[4] = Drying in an air dryer, XRPD analysis
Excerpt: Hydrated form H of ezetimibe was dried in an air dryer (RH was 35%) at two different temperatures.

Question: Which “mass in the desorption cycle” value ([1]; at 20% RH) does the source give for O=C1[C@H](CC[C@H](O)c2ccc(F)cc2)[C@@H](c2ccc(O)cc2)N1c1ccc(F)cc1 [Anhydro form of ezetimibe, 1-(4-fluorophenyl)-3(R)-[3-(4-fluorophenyl)-3(S)-hydroxypropyl]-4(S)-(4-hydroxyphenyl)-2-azetidinone] here?
Answer: dropped sharply

Question: And the “mass in the desorption cycle” value ([1]; down to 30% RH)?
Answer: not significantly changed

Question: What about the “water sorption, mass change at equilibrium” value ([1]; first cycle, 60% RH) of the same compound?
Answer: 4.2%

Question: What about the “water sorption, total” value ([1]; first cycle, 95% RH) of the same compound?
Answer: 4.4%

Question: And the absorption of water ([1]; first cycle, up to 50% RH)?
Answer: no significant absorption of water

Question: And the water sorption ([1]; second cycle, 50% RH)?
Answer: increased sharply

Question: With O=C1[C@H](CC[C@H](O)c2ccc(F)cc2)[C@@H](c2ccc(O)cc2)N1c1ccc(F)cc1 [Hydrated form H of ezetimibe, 1-(4-fluorophenyl)-3(R)-[3-(4-fluorophenyl)-3(S)-hydroxypropyl]-4(S)-(4-hydroxyphenyl)-2-azetidinone] as the compound, how does the “time to constant value of LOD” value ([2]; 50° C.) read?
Answer: 11.5 min

Question: And the “time to constant value of LOD” value ([2]; 60° C.)?
Answer: 6.5 min

Question: And the “time to constant value of LOD” value ([2]; 70° C.)?
Answer: 4.5 min

Question: And the “resulting form according to XRPD analysis” value ([2]; after heating at 50, 60 or 70° C. to constant LOD)?
Answer: anhydro form

Question: What about the “Constant value of LOD” value ([2]; heated at 50° C., 60° C. or 70° C.) of the same compound?
Answer: −4.5%

Question: What about the “form according to XRPD analysis” value ([3]; after 1 h) of the same compound?
Answer: A>H

Question: What about the “form according to XRPD analysis” value ([3]; after 2 h) of the same compound?
Answer: sole form

Question: What about the “form detected according to XRPD analysis” value ([4]; air dryer, RH 35%, 40° C., after 1 h) of the same compound?
Answer: only anhydro form

Question: And the “temperature at which converted to anhydrous form A” value ([4]; upon drying)?
Answer: about 40 °C

Question: With O=C1[C@H](CC[C@H](O)c2ccc(F)cc2)[C@@H](c2ccc(O)cc2)N1c1ccc(F)cc1 [S form of ezetimibe, 1-(4-fluorophenyl)-3(R)-[3-(4-fluorophenyl)-3(S)-hydroxypropyl]-4(S)-(4-hydroxyphenyl)-2-azetidinone] as the compound, how does the stability upon drying [2] read?
Answer: stable upon drying

Question: What about the “LOD (%)” value ([2]; 50 ° C., 14 min) of the same compound?
Answer: −0.83%

Question: And the “LOD (%)” value ([2]; 60 ° C., 10.5 min)?
Answer: −1.10%

Question: What about the “LOD (%)” value ([2]; 70 ° C., 9 min) of the same compound?
Answer: −2.34%

Question: What about the “LOD (%)” value ([2]; 130 ° C., 4.5 min) of the same compound?
Answer: −12.0%

Question: What about the loss of drying ([2]; temperature of about 70° C.) of the same compound?
Answer: only minimal loss of drying

From patent US20130190487A1, “PROCESS FOR THE PREPARATION OF EZETIMIBE AND DERIVATIVES THEREOF” (KRKA, priority 2007, published 2013)
